Data: PubChem BioAssay AID977621 (Broad Institute, 2014)
Results filed as inconclusive are left out. Active and inactive are the calls of the source.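 The calls were made as follows: active = Wild-type ribosome reporter drop at least double the humanized mutant ribosome reporter drop, growth loss under a set limit; inconclusive = no clear call, values can overlap the other calls; inactive = the rest.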

Legend:
[1] = system: E. coli H69 humanized mutant ribosome RFP strain growth, fluorescence, 24 h; test: growth inhibition of wild-type GFP E. coli, dose response, H69 mutant RFP, cherry-pick (AID 977621); details: test 2;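 also: wild-type GFP and H69 mutant RFP strains grown together 50/50 in each well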
[2] = system: E. coli wild-type GFP strain growth, fluorescence, 24 h; test: as above
[3] = E. coli mixed culture, 24 h, measured here: total growth OD600, test 2

## CCCc1nc2oc3c(NCCCN(C)C)ncnc3c2c2c1CCCC2
[1]
  AC50: 6.74 µM

## O=C(Nc1cccc(Oc2ccc3c(c2)C(=O)NC3=O)c1)c1cccs1
[1]
  AC50: 13 µM

## Cc1cc(-c2ccc(C)c(S(=O)(=O)NCC3CCN(Cc4ccccc4F)CC3)c2)on1
[1]
  AC50: > 100 µM

## Cc1ccccc1S(=O)(=O)c1cc2ccccc2nc1N
[1]
  AC50: > 100 µM

## Cc1noc(C)c1NC(=O)Nc1ccc2c(c1)C(=O)N([C@@H](C)CO)C[C@@H](C)[C@H](CN(C)C(=O)Nc1ccc3c(c1)OCO3)OCCCC[C@H](C)O2
[1]
  AC50: > 100 µM

## O=C(O)c1cccnc1SCc1ccccc1Cl
[1]
  AC50: 35.9 µM

## Brc1ccccc1Cn1c(-c2cncs2)nc2ccccc21
[1]
  AC50: > 100 µM

## CCc1cc2c(=O)n(Cc3ccccc3)c(SC3CCOC3=O)nc2s1 (stereo unspecified)
[1]
  AC50: 52.3 µM

## O=C(O)c1cc(-c2cccs2)nn1-c1cccc(Cl)c1
[1]
  AC50: 46.1 µM

## CSc1nnnn1-c1ccc(Cl)cc1
[1]
  AC50: > 100 µM

## O=C(O)c1cc2ccc3ccccc3c2[nH]1
[1]
  AC50: 7.13 µM

## O=C(OCC1COc2ccccc2O1)c1ccccc1F (stereo unspecified)
[1]
  AC50: > 100 µM

## Cc1noc(NS(=O)(=O)c2ccc(NC(=O)c3cc(-c4ccccc4Cl)nc4ccccc34)cc2)c1C
[1]
  AC50: 45.6 µM

## O=C(c1cccc(F)c1)N1CCN(c2ccc([N+](=O)[O-])c3cccnc23)CC1
[2]
  AC50: > 100 µM (inactive)
[2]; [3]
  AC50: > 100 µM

## COc1ccc(NS(=O)(=O)c2ccc(Cl)c(NC(=O)c3ccccc3F)c2)cc1
[2]
  AC50: > 100 µM (inactive)

## Cc1sc2ncn(CC(=O)Nc3ccccc3F)c(=O)c2c1-c1ccccc1
[2]
  AC50: > 100 µM (inactive)

## COc1cc(C(N)=O)cc(Br)c1OCc1ccccc1
[2]
  AC50: > 100 µM (inactive)
[2]; [3]
  AC50: 35.4 µM

## Cc1cccc(-c2ccc([C@H]3[C@@H](CO)N4CCCCN(S(=O)(=O)c5ccccc5C)C[C@H]34)cc2)c1
[2]; [3]
  AC50: 27.2 µM

## COC(=O)COc1ccc(Cl)cc1C1Nc2ccccc2C(=O)N1c1ccc(OC)cc1 (stereo unspecified)
[2]
  AC50: > 100 µM (inactive)
[2]; [3]
  AC50: > 100 µM

## COC(=O)CN1C(=S)N(c2ccc(Cl)cc2)C(=O)C1CC(=O)Nc1ccc(F)cc1 (stereo unspecified)
[2]
  AC50: > 100 µM (inactive)
[2]; [3]
  AC50: > 100 µM

## NC(=O)CSc1nc2cc([N+](=O)[O-])ccc2n1-c1cccc(C(F)(F)F)c1
[2]
  AC50: > 100 µM (inactive)

## NC(=O)c1nsc(C(=O)N(c2ccccc2F)C(C(=O)NCc2ccc(F)cc2)c2ccc(O)cc2)c1N (stereo unspecified)
[2]
  AC50: > 100 µM (inactive)
[2]; [3]
  AC50: 47 µM

## COc1ccc(OCC(O)CNS(=O)(=O)c2cccc(Cl)c2)cc1 (stereo unspecified)
[2]; [3]
  AC50: > 100 µM

## O=S(=O)(Nc1cccc(-c2ccc(N3CCCCCC3)nn2)c1)c1ccc(F)cc1
[2]
  AC50: > 100 µM (inactive)

## O=S(=O)(c1ccc(F)cc1)N1C[C@@H]2N[C@H](C1)C2c1ccc(/C=C/c2ccccc2)cc1 (stereo partly specified)
[2]; [3]
  AC50: 41.3 µM

## NS(=O)(=O)c1cccc(NC(=O)c2cccc(-c3ccc(O)cc3)c2)c1
[2]
  AC50: > 100 µM (inactive)

## COc1ccc(N(CCC(=O)O)S(=O)(=O)c2ccc(C)cc2C)cc1
[2]; [3]
  AC50: > 100 µM

## Cc1nn(-c2ccccc2)c(C)c1CN(C)C(=O)c1ccc(S(=O)(=O)NCc2ccco2)cc1
[2]
  AC50: > 100 µM (inactive)

## CCOc1ccc(NC(=O)CN(C)CC(=O)Nc2ccc(Br)cc2F)cc1OCC
[2]
  AC50: > 100 µM (inactive)
[2]; [3]
  AC50: > 100 µM

## Cc1ccc(C)c(N2CCN(C(=O)CCS(=O)(=O)c3ccc4c(c3)oc(=O)n4C)CC2)c1
[2]; [3]
  AC50: > 100 µM

## CCc1cccc(NC(=O)CCC(=O)N2CCSc3ccccc32)c1
[2]
  AC50: > 100 µM (inactive)
[2]; [3]
  AC50: 47.6 µM

## CCOc1ccc(OCC)c(NC(=O)CSc2nc3cccnc3n2C)c1
[2]
  AC50: > 100 µM (inactive)
[2]; [3]
  AC50: 36.6 µM

## O=C(CN(CCO)c1ccccc1)Nc1cccc(S(=O)(=O)N2CCCC2)c1
[2]
  AC50: > 100 µM (inactive)

## CC(C)(C)N(Cc1ccccc1)C(=O)CN1C(=O)c2ccccc2S1(=O)=O
[2]
  AC50: > 100 µM (inactive)

## Cc1cc(C(=O)OCC(=O)Nc2cccc(S(N)(=O)=O)c2)c2ccccc2n1
[2]; [3]
  AC50: > 100 µM

## O=C(NCc1nnc(SCc2ccccc2)n1-c1ccccc1)C12CC3CC(CC(C3)C1)C2
[2]
  AC50: > 100 µM (inactive)
[2]; [3]
  AC50: 38.6 µM

## S=C1SCN(Cc2cccnc2)CN1Cc1cccnc1
[2]; [3]
  AC50: > 100 µM
